System: dihydrofolate reductase (DHFR)
Conditions: MT 2.2×10^−5 M; 30° C.; absorbance at 340 nm
Procedure: Reagents and test samples were added to 3 ml disposable cuvettes to the required volume of distilled water in the following order: H2O (0.1-0 ml), 1.5 M Na-acetate buffer (1 ml), 1.8 M KCl (1 ml), 3 mM NADPH (0.15 ml), test solution in PBS (0-0.1 ml), dihydrofolate reductase (DHFR) (ca. 0.01 Uμl) (5 μl). All reagents were purchased from Sigma. The DHFR was introduced, mixed and incubated at 30° C. for 2 min. The reaction was initiated by the addition of dihydrofolic acid (3 mM, 0.15 ml), and the decrease in absorbance with the time at 340 nm was followed.
A control reaction, which contained 0.1 ml of PBS as test solution was included.

CN(Cc1cnc2nc(N)nc(N)c2n1)c1ccc(C(=O)N[C@@H](CCC(=O)O)C(=O)O)cc1 [MT]
inhibition of DHFR activity: completely inhibited

— patent US6844328B2, “Polysaccharidic esters of N-derivatives of glutamic acid” (Eurand Pharmaceuticals Ltd., priority 2000, dated 2005)
